A word on the Cmax: it is the maximum level reached in the sampled fluid or tissue. As usually defined, the AUC(0-inf) is the area under the concentration-time curve extrapolated to infinity. Read a low AUC(0-inf) as less exposure. As usually defined, the Tmax is the time at which the peak concentration occurs. For orientation: AUC means the area under the concentration-time curve, a measure of exposure.

Read-outs that look alike come from different tables or passages of the source. Bounds are passed on as bounds.

The values below come from patent publication US12310946B2, “Pharmaceutical composition for oral administration of edaravone and method of administering same” (MITSUBISHI TANABE PHARMA CORPORATION, priority 2020, dated 2025).

Data set [1] is described as follows: Solubility of edaravone in water and BCS classification. The class given is physicochemical. The procedure:
Since 1 g of edaravone requires 500 mL of water to dissolve, 105 mg of edaravone is calculated to require 52.5 mL of water. […] Thus, edaravone is regarded as a BCS Class 1 drug with high solubility and high permeability. These findings led to a brief that edaravone is a compound whose pharmacokinetics are not affected by meal consumption. […] Not only the presence or absence of a meal but also the types of meal cause differences in effects on the pharmacokinetics of edaravone, and suitable administration timing depends on each type of meal.

Data set [2] in a line: Clinical Trial #12: PK after oral administration of edaravone solution and suspension. The conditions noted are these: male, human, in vivo, fasting (N = 6), mean; for AUC(0-t): read-out: AUC0-24 h. How it is done:
Whether or not there is an influence on pharmacokinetics by administering in forms of a solution and a suspension when administering edaravone orally was evaluated. Specifically, Clinical Trial #12 described below was conducted on healthy adult Japanese male subjects. Administration during the trial period was a single oral administration.
Either an edaravone solution containing 60 mg of edaravone or an edaravone suspension containing 120 mg of edaravone was orally administered to subjects in a fasting state of 10 hours or longer since the last meal intake. The 60 mg or 120 mg of edaravone was dissolved or suspended in 50 mL or 10 mL of 0.1% polyvinyl alcohol solution, respectively. The edaravone solution or suspension of the respective content was administered to each of six subjects.

Data set [3] is described as follows: Clinical study #9: PK of edaravone oral formulation (formula #3) in healthy adults (reference group), oral, fasted. In kind it is in vivo. The settings on record: both sexes, human, plasma, 105 mg oral, healthy (n = 42), mean, before weight correction. How it is done: On the other hand, a clinical study #9 shown below was conducted in healthy adult male and female subjects (42 in total) (the reference group). That is, the edaravone oral formulation of the formula #3 was administered orally to the reference group in fasted conditions after a lapse of 10 hours or longer. Then, blood samples were each collected before the administration, and 5 minutes, 15 minutes, 30 minutes, 45 minutes, 1 hour, 1.5 hours, 2 hours, 4 hours, 6 hours, 8 hours, 10 hours, 12 hours, 24 hours, 36 hours, and 48 hours after the administration, and the concentrations of unchanged edaravone in plasma were measured.
(§1) The resulting PK parameters were corrected for body weight of each subject adjusted to 70 kg by a proportional calculation for each of the patient group and the reference group. In addition, the results of the PK parameters after correction of the patient group are shown as box-whisker plots of #9 (the reference group), and individual plots of #5 (the patient group) and #9 (the reference group) in FIG. 3. In FIG. 3, X represents a mean value. […] Thus, the difference in the Cmax and the difference in the AUC before weight correction between the patient group and the reference group seen in Table 9 below are considered due to the difference in body weight between the patient group and the reference group, and the difference in the Cmax and the difference in the AUC after weight correction between the patient group and the reference group observed in FIG. 3 are each considered to be within the range of error.

Data set [4] is described as follows: Clinical studies #7 and #8: edaravone oral dose vs AUC (4-parameter logistic model) compared with 60-mg intravenous administration. The class given is in vivo. The settings on record: human, plasma; approved 60-mg edaravone intravenous administration formulation (60 mg/60 min). The procedure:
Specifically, clinical studies #7 and #8 described below were conducted in healthy adult male subjects for each subject group. In clinical studies #7 and #8, one dose each of edaravone oral formulations (edaravone suspensions) of formulas #7 and #8 shown in Table 11 below were used respectively and administered orally once during the study period.
Any of the edaravone oral formulations (formula #7) with an edaravone content of 30 mg, 60 mg, 120 mg, 200 mg, or 300 mg was administered orally to subjects in fasted conditions after a lapse of 10 hours or longer from consumption of a meal. The edaravone oral formulations with each content were each administered orally to 6 subjects. Blood samples were each collected before the administration, and 15 minutes, 30 minutes, 1 hour, 1.5 hours, 2 hours, 4 hours, 6 hours, 8 hours, 12 hours, 24 hours, 36 hours, and 48 hours after the administration, the concentrations of unchanged edaravone were measured, and the AUCs were calculated.
The edaravone oral formulations (formula #8) with an edaravone content of 100 mg was administered orally to 9 subjects in fasted conditions after a lapse of 10 hours or longer from consumption of a meal. […]

Data set [5] is described as follows: Clinical study #5: PK of edaravone oral formulation (formula #3) in ALS patients, oral, fasted. The class given is in vivo, human. The conditions noted are these: for difference in the AUC between the patient group and the reference group / difference in the Cmax between the patient group and the reference group: ALS patients oral vs healthy oral; for Cmax: po, 105 mg. The procedure: To evaluate the pharmacokinetics of edaravone in ALS patients, a clinical study #5 shown below was conducted in ALS patients who can live daily life independently (the patient group).
The edaravone oral formulation was administered orally to the patient group in fasted conditions after a lapse of 10 hours or longer from consumption of a meal. In the patient group, ALS patients who had been already administered with an edaravone intravenous infusion formulation were orally administered with the edaravone oral formulation after a lapse of 48 hours or longer from the time of completion of the previous administration of the intravenous infusion formulation. The same edaravone oral formulation as the formula #3 in Table 1 above was used. Then, blood samples were each collected before the administration, and 5 minutes, 15 minutes, 30 minutes, 45 minutes, 1 hour, 1.5 hours, 2 hours, 4 hours, 6 hours, 8 hours, 10 hours, 12 hours, and 24 hours after the administration, and the concentrations of unchanged edaravone in plasma were measured.
as §1

The mark [6] stands for this setting: after weight correction (70 kg).
Setting [7] is: human, plasma, 105 mg oral, fasted, ALS patients (n = 9), mean, before weight correction.

Turning to `CC1=NN(c2ccccc2)C(=O)C1` [Edaravone, 3-methyl-1-phenyl-2-pyrazolin-5-one], the “water required to dissolve 105 mg of edaravone” value in data set [1] (105 mg of edaravone, calculated) is reported as 52.5 mL. In data set [1] (1 g of edaravone), the “water required to dissolve 1 g of edaravone” value turned out to be 500 mL. The solubility classification entry in data set [1] (Biopharmaceutics Classification System) was “high solubility compound”. Also, the solubility in data set [1] (for example, water, read-out: saturation solubility of edaravone with respect to a dispersion medium) was at most 2000 µg/mL. Besides, in data set [1] (solubility and Caco-2 permeability), the BCS class result is “BCS Class 1”. Moreover, the Cmax in data set [2] (Cohort S1, 60 mg, Solution) stood at 755 ng/mL; in data set [2] (Cohort S2, 120 mg, Suspension) it was 1740 ng/mL; in data set [3], 1660 ng/mL; in data set [5] (human, plasma, 105 mg oral, ALS patients, corrected to 70 kg, read-out: Cmax after weight correction, mean value±standard error) it was 1610 ± 231 ng/mL; in data set [5] (human, plasma, 105 mg oral, fasted, ALS patients (n = 9), mean, before weight correction, read-out: Cmax), 1900 ng/mL. The AUC(0-t) is 816 ng·h/mL in data set [2] (Cohort S1, 60 mg, Solution) and 2240 ng·h/mL in data set [2] (Cohort S2, 120 mg, Suspension). The total exposure AUC(0-inf) was determined as 1760 ng·h/mL in data set [3] and 1740 ng·h/mL in data set [5] (setting [7]). Besides, the Tmax came out at 26.4 min in data set [3] and 18.6 min in data set [5] (setting [7]). The exposure (AUC) in data set [4] was 1740 ng·h/mL; in data set [5] (human, plasma, 105 mg oral, ALS patients, corrected to 70 kg, read-out: AUC after weight correction, mean value±standard error), 1460 ± 166 ng·h/mL. Moreover, the “difference in the AUC between the patient group and the reference group” value amounted to 5.8% in data set [5] (setting [6]) and 1.5% in data set [5] (before weight correction). Moreover, the “difference in the Cmax between the patient group and the reference group” value was determined as 9.8% in data set [5] (setting [6]) and 15% in data set [5] (before weight correction).
